Holding throughout (assay): NCI anticancer screen, dose series, 48 h
Experiment [1] concerns HCT-15.
In experiment [2] the test system is UO-31.
Experiment [3] concerns NCI/ADR-RES.
Experiment [4] deals with MDA-N.
Experiment [5] concerns HT-29.
Experiment [6] concerns OVCAR-4.
Experiment [7] has as its system UACC-62.
Experiment [8] relates to NCI-H23.
Experiment [9] has as its system DU-145.
The test system of experiment [10] is CAKI-1.
For experiment [11], the system named is COLO 205.
Experiment [12] relates to SN12C.
Experiment [13] concerns MOLT-4.
Experiment [14] relates to PC-3.
For experiment [15], the system named is SF-539.
For experiment [16], the system named is IGROV-1.
In experiment [17] the test system is Hs-578T.
Experiment [18] deals with BT-549.
For experiment [19], the system named is T47D.

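All cell lines were grown in 96-well plates and treated with compound for 48 hours. The concentration for 50% growth inhibition is given as GI50.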 Activity calls are given as the source filed them. No stated cut-off is given here; in the data, active = GI50 up to about 1.1 µM and inactive = higher. Some results are limits rather than exact numbers.

For `O=C(O)c1nn(-c2ccccc2-c2nnc(O)nc2O)c(=O)[nH]c1=O`, the GI50 in experiment [1] is over 100 µM; in experiment [2] it was > 100 µM (inactive); in experiment [3], > 100 µM (inactive); in experiment [4], > 100 µM (inactive); in experiment [5], > 100 µM (inactive); in experiment [6] it was > 100 µM (inactive). The GI50 in [7], in [8], in experiment [9], in [10], in [11] and in [12] was > 100 µM (inactive) throughout. Moreover, the GI50 in experiment [13] was 4.73 µM (inactive); in experiment [14], > 100 µM (inactive); in experiment [15], > 100 µM (inactive); in experiment [16] it was > 100 µM (inactive); in experiment [17] it was > 100 µM (inactive); in experiment [18], > 100 µM (inactive). Moreover, the GI50 in experiment [19] was > 100 µM (inactive).

For `CN1CCCN(C)C1c1cc([N+](=O)[O-])ccc1O`, the GI50 was 43.6 µM in [1]; 0.436 µM (active) in experiment [2]; 35.6 µM (inactive) in [3]; 40.7 µM (inactive) in experiment [4]; 33.8 µM (inactive) in experiment [5]; 32 µM (inactive) in experiment [6]. In addition, the GI50 in experiment [7] was 16.6 µM (inactive); in experiment [8], 89.1 µM (inactive); in [9], 36.9 µM (inactive); in [10], > 100 µM (inactive); in [11] it was 56.1 µM (inactive); in experiment [12], 31.6 µM (inactive). The GI50 was 22.1 µM (inactive) in [13]; 23.6 µM (inactive) in experiment [14]; 25.2 µM (inactive) in [15]; 26.3 µM (inactive) in experiment [16]; 26.1 µM (inactive) in experiment [17]; 39.5 µM (inactive) in experiment [18]. In experiment [19], the GI50 is 47.6 µM (inactive).

For the compound `CC12CCC(C(Br)(Br)C1=O)C2(C)C` (stereo unspecified), the GI50 was 0.164 µM in [1]; 0.48 µM (active) in experiment [2]; 0.131 µM (active) in experiment [3]; 0.196 µM (active) in [4]; 0.228 µM (active) in experiment [5]; 0.333 µM (active) in experiment [6]. Besides, the GI50 in experiment [7] was 0.682 µM (active); in experiment [8], 0.123 µM (active); in [9], 6.08 µM (inactive); in [10] it was 1.8 µM (inactive); in experiment [11], 3.01 µM (inactive); in experiment [12], 0.904 µM (active). Moreover, the GI50 in experiment [13] was 0.091 µM (active); in experiment [14], 1.07 µM (active); in experiment [15], 2.94 µM (inactive); in experiment [16], < 0.0422 µM (active); in experiment [17] it was 0.251 µM (active); in [18] it was 0.173 µM (active). Further, in experiment [19], the GI50 was 0.0467 µM (active).

With `CC1(C)NC2C(=O)c3c([nH]c4ccccc34)[C@]3(C)CCC1CC23` (stereo partly specified), the GI50 in experiment [1] was 83 µM; in [2] it was > 100 µM (inactive); in [3], > 100 µM (inactive); in experiment [4], > 100 µM (inactive); in [5], 94.8 µM (inactive); in [6], 60.8 µM (inactive). Moreover, the GI50 in [7], in experiment [8], in experiment [9], in [10], in [11] and in [12] was > 100 µM (inactive) throughout. Moreover, the GI50 was 59.4 µM (inactive) in experiment [13]; > 100 µM (inactive) in [14]; > 100 µM (inactive) in [15]; > 100 µM (inactive) in experiment [16]; > 100 µM (inactive) in experiment [17]; > 100 µM (inactive) in experiment [18]. The GI50 in [19] was 21.6 µM (inactive).

Values taken from ChEMBL document CHEMBL1201862, “PubChem BioAssay data set” (2004).
